Experimental data reported in PMC9233891 (Bioorganic Chemistry, 2022).

What was measured:
[1] = system: S protein / ACE2 interaction; details: previous study; cited from earlier work
[2] = system: ancestral SARS-CoV-2; assay: microbe, parasite or virus in culture; format: cell-based; details: Severe acute respiratory syndrome coronavirus 2, Vero, 24 h, read-out: IC50, inhibition of SARS-CoV-2 infection

Row | SMILES | inhibition of the interaction between the S protein and ACE2 [1] | IC50 [2]
1 | C[C@@H]1O[C@@H](O[C@H]2[C@H](OC(=O)[C@]34CCC(C)(C)C[C@H]3C3=CC[C@@H]5[C@@]6(C)C[C@H](O)[C@H](O[C@@H]7O[C@H](CO)[C@@H](O)[C@H](O)[C@H]7O)C(CO)(CO)[C@@H]6CC[C@@]5(C)[C@]3(C)C[C@H]4O)OC[C@H](O)[C@@H]2O)[C@H](O)[C@H](O)[C@H]1O[C@@H]1OC[C@@H](O)[C@H](O[C@@H]2OC[C@](O)(CO)[C@H]2O)[C@H]1O [Platycodin D, platycodin D] | does not inhibit the interaction between the S protein and ACE2 | 
2 | CCN(CC)CCCC(C)Nc1ccnc2cc(Cl)ccc12 (stereo not drawn) [chloroquine] |  | 5.56 µM
3 | CCC(CC)COC(=O)[C@H](C)N[P@](=O)(OC[C@H]1O[C@@](C#N)(c2ccc3c(N)ncnn23)[C@H](O)[C@@H]1O)Oc1ccccc1 [remdesivir] |  | 4.67 µM
